Measurements: patent US20010025045A1, “Substituted isoquinoline derivatives and their use as anticonvulsants” (SmithKline Beecham p.l.c., priority 1997, published 2001)

What follows are compounds tested on maximal (tonic hindlimb extension) electroshock seizures in male rats (Sprague Dawley) (assay: Rat MEST (maximal electroshock seizure threshold) test). Details: 2 mg/kg p.o., suspension in methyl cellulose, one hour post dosing, statistically significant.
Type: in vivo
Protocol: The maximal electroshock seizure (MEST) threshold test in rodents is particularly sensitive for detecting potential anticonvulsant properties ^1. In this model, anticonvulsant agents elevate the threshold to electrically-induced seizures whilst proconvulsants lower the seizure threshold.
The threshold for maximal (tonic hindlimb extension) electroshock seizures in male rats (Sprague Dawley, 80-150 g, 6 weeks old) was determined by a Hugo Sachs Electronik stimulator which delivered a constant current (0.3 sec duration; from 1-300mA in steps of 5-20mA). The procedure is similar to that outlined above for mouse and full details are as published by Upton et al.^4
The percentage increase or decrease in CC50 for each group compared to the control is calculated.
Drugs are suspended in 1% methyl cellulose.
With COc1cc(C(C)C)c(C#N)cc1C(=O)Nc1cccc2c1CCN(C)C2.Cl [Example 10, N-(2-Methyl-1,2,3,4-tetrahydroisoquinolin-5-yl)-5-cyano-2-methoxy-4-iso-propylbenzamide, hydrochloride] the “increase in seizure threshold” value was 152%.
CCOc1cc(C(C)C)c(C(F)(F)F)cc1C(=O)Nc1cccc2c1CCN(C)C2 [Example 11, N-(2-Methyl-1,2,3,4-tetrahydroisoquinolin-5-yl)-2-ethoxy-4-iso-propyl-5-trifluoromethylbenzamide] was tested, and the “increase in seizure threshold” value was 92%.
CCOc1cc(C(C)C)c(C#N)cc1C(=O)Nc1cccc2c1CCN(C)C2.Cl [Example 16, N-(2-Methyl-1,2,3,4-tetrahydroisoquinolin-5-yl)-5-cyano-2-ethoxy-4-iso-propylbenzamide, hydrochloride] was tested, and the “increase in seizure threshold” value was 336%.
With CCOc1cc(OC)c(C(=O)Nc2cccc3c2CCN(C)C3)cc1Br [Example 17, N-(2-Methyl-1,2,3,4-tetrahydroisoquinolin-5-yl)-5-bromo-4-ethoxy-2-methoxybenzamide] the “increase in seizure threshold” value was 403%.
COc1cc(OC)c(C(=O)Nc2cccc3c2CCN(C)C3)cc1C#N.Cl [Example 23, N-(2-Methyl-1,2,3,4-tetrahydroisoquinolin-5-yl)-2,4-dimethoxy-5-cyanobenzamide, hydrochloride] was tested, and the “increase in seizure threshold” value was 107%.
